# Test results from US20100034839A1, “METHODS FOR TREATING VIRAL DISORDERS” (priority 2008, published 2010).
# “Also recorded” adds a separate entry of the source.
# Tested on: CLIP^+ B cells and lymphocyte subsets in spleen and lymph nodes
# Assay: CpG-ODN (TLR9) induced chronic hyperimmune activation in B6.129 mice with or without peptide
# Type: in vivo, mouse
# Procedure: FIG. 14 depicts that administration of targeted peptide in combination with CpG-ODN reverses the inflammatory effects of TLR9 activation. FIG. 14a: B6.129 mice were injected with CpG-ODN, a TLR9 agonist without (black squares) or with VGV-hB (black circles). Total spleen cell recoveries (top panel) and lymph node cell recoveries (lower panel) at 24, 72, and 96 hours are reported. FIG. 14b: spleen cells from untreated B6.129 (upper left panel) mice, spleen cells from mice injected intraperitoneally with CpG-ODN for 48 hours (upper right panel), spleen cells from mice injected intraperitoneally with CpG-ODN+targeted peptide (VGV-hB) (lower left panel), or spleen cells from mice injected intraperitoneally with CpG-ODN+scrambled peptide (VGV-sP) (lower right panel), were harvested and stained using anti-mouse B220-PE Cy5 versus 15G4-FITC anti-mouse CLIP/I-Ab Cells were analyzed flow-cytometrically using two-dimensional dot plot analysis. FIGS. 14c & 14d: individual B6.129 animals were injected with CpG-ODN and one of three doses of peptide replacement, with either VGV-hB (FIG. 14c) or VGV-sB (FIG. 14d). As indicated, for each dose, four to six animals were injected with each of three doses, at 0.5, 5, and 50 μg per injection. Splenocytes were removed after 48 hours, stained using anti-mouse B220-PE versus 15G4-FITC anti-mouse CLIP/I-Ab. Cells were acquired and analyzed with flow cytometry, using two-dimensional dot plot analysis. Percentages of CLIP+ B cells were plotted using scatter plot analysis. The formula for the slope of each line is indicated in each of FIGS. 14c & 14d.
# FIG. 15 depicts the effects of targeted peptides on the distribution of TLR activated lymphoid subsets of B cells, CD4+ T cells, CD8+ T cells, and on CD4+ T regulatory cells. FIG. 15a: B6.129 mice were injected with CpG-ODN without (squares) or with (circles) VGV-hB. Spleen (solid black symbols) and lymph nodes (open symbols) were harvested at 24, 72, and 96 hours, and stained using anti-mouse B220-PE versus 15G4-FITC anti-mouse CLIP/I-Ab. Data were plotted as percent CLIP+ B cells from either spleen or node. FIG. 15b: B6.129 mice were injected with CpG-ODN without (squares) or with (circles) VGV-hB. Spleen (solid black symbols) and lymph nodes (open symbols) were harvested at 24, 72, and 96 hours, and stained using anti-mouse CD8-PE. Data were plotted as percent CD8+ T cells from either spleen or node as indicated. FIG. 15c: B6.129 mice were injected with CpG-ODN without (squares) or with (circles) VGV-hB. Spleen (solid black symbols) and lymph nodes (open symbols) were harvested at 24, 72, and 96 hours, and stained using anti-mouse CD4 GK1.5-FITC. Data were plotted as percent CD4+ T cells from either spleen or node. FIG. 15d: B6.129 mice were injected with CpG-ODN without (squares) or with (circles) VGV-hB. Spleen (solid black symbols) and lymph nodes (open symbols) were harvested at 24, 72, and 96 hours, and stained using anti-mouse CD4 GK1.5-PE versus anti-mouse FoxP3-FITC. Data were plotted as percent CD4+ FoxP3+ T cells from either spleen or node.
# FIG. 16 depicts that TLR activation and peptide reversal differentially affect cell death of lymphocyte subsets. FIG. 16a: B6.129 mice were injected with CpG-ODN without (solid black lines) or with VGV-hB (dashed lines). Cells were counted and viability was determined flow cytometrically. T cell viability 48 hours subsequent to CPG-ODN treatment alone is indicated by solid circles and solid black line; T cell viability, 48 hours after treatment with CpG-ODN and VGV-hB, is indicated by solid squares and dashed line. B cell viability, CpG-ODN treatment alone, is indicated by black x's on a solid black line; B cell viability after CpG-ODN and VGV-hB is indicated by solid black triangles and dashed lines. FIG. 16b: Ag-specific T cell hybridomas induce apoptosis B cells. FIG. 16c: Ag-specific T cell hybridomas induce apoptosis in resting and in CpG-ODN stimulated splenocytes, but not in antigen receptor engaged B cells. […]
# [1] = VGV-hB in combination with TLR 9 stimulation, FIG. 16a
sequence,measurement,setting,value
FRIMAVLAS,"effect of CpG-ODN on total cell numbers, absolute numbers of B cells and CLIP^+ B cell distribution between spleen and lymph node","24, 72, 96 hours, FIG. 15a",reduced
same,percent of CpG-induced CLIP^+ B cells in spleen,"CpG-ODN plus peptide intraperitoneally, 48 hours, FIG. 14b",reversed the effects of CPG alone
same,CD8^+ T cells,CpG-ODN with VGV-hB,promotes expansion of CD8^+ T cells
same,CD4^+FoxP3^+ Tregs in the lymph nodes,"FIG. 15d, 15e, listed as VGV-hB",reversible; also recorded: decreases in Tregs
same,B cell death,[1],increased B cell death
same,number of live CD4^+ T cells,[1],moderate increase in the number of live CD4^+ T cells
same,"reversal of CpG-ODN activation incl. percent of CLIP^+ B cells from total spleen, peptide titration","dose titration of peptide per mouse, FIGS. 14c and 14d",reversed the effects of CpG-ODN activation
